This note sets out measurements from publication PMC3555145 (Biomacromolecules, 2012).

This assay relates to Raw 264.7 and HeLa cells. To be noted: rhodamine-labeled polypeptide, n = 3.

As to “poly(ethylene glycol)-block-poly(O-pentenyl-L-serine-graft-cysteamine) [PEG112-b-(PPELS70-g-CA)]”, the “time of maximal cell uptake level post polypeptide treatment” value (2 μg/well) amounted to 2 h. For the same substance, the “dependence of cell uptake level on incubation time and feeding amount” value (0.5-5 μg/well for 2 h, 2 μg/well for 0.4-4 h) was “increased with incubation time and the feeding amount”.
